Test results taken from patent US20120107916A1, “METHODS AND COMPOSITIONS FOR AFFECTING THE DIFFERENTIATION OF CLOSTRIDIA IN CULTURE” (priority 2009, published 2012).

How the values were obtained:
C. acetobutylicum = test: Estimate of extended serial propagation in continuous culture from sequential batch transfers; set-up: species or system Clostridium acetobutylicum; settings: dilution rate 0.05/hour, from about 140 hours without peptide
Description: Under these experimental conditions, and knowledge of the growth of C. acetobutylicum in culture, it was determined that each sequential transfer was equivalent to about seven bacterial generations ([…], Applied and Environmental Microbiology 59:4198-4202, 1993). […] An estimate of extended serial propagation in continuous culture may be expressed as extended time in continuous culture by taking the dilution rate into account. In continuous culture, the time for one generation is equal to the inverse of the dilution rate.

[1] = test system: Clostridium acetobutylicum ATCC 824; test: Final pH of cell-free culture supernatants of sequential batch cultures; type: cell-based
Description: (§1) Bacterial strains and media. Clostridium acetobutylicum ATCC 824 and C. beijerinckii NCIMB 8052 are available from several commercial microbial culture collections including the American Type Culture Collection (ATCC), Manassas, Va., USA. The strains were grown at 30° C. or 37° C. in YE broth, which contained, per liter: 5.0 g yeast extract, 2.5 g casamino acids, 1.0 g L-asparagine, 0.5 g cysteine.HCl, 56 mg K2HPO4, 56 mg KH2PO4, 82 mg anhydrous MgSO4, 8 mg FeSO4.H2O, 6 mg MnSO4.H2O and 10 g glucose. Alternatively, strains were grown in YEPG broth, which was identical to YE expect that K2HPO4 and KH2PO4 were increased to 145 mg/L each and glucose was increased to 60 g/L. The pH of the media was adjusted to 7.2 using 45% KOH prior to sterilization by autoclaving. Media were solidified by addition of 1.5% Bacteriological Agar, Actimedia Manufacturers, Inc., Lansing, Mich. All cultures were grown in anaerobic conditions using the AnaeroPack System, Mitsubishi Gas Chemical Co., Inc., Japan, and GasPak EZ Gas Generating Sachets, Becton, Dickinson and Co., Sparks, Md. Spore stocks were kept at room temperature on agar-solidified media and were activated by suspending spores in 0.5 mL to 1.0 mL of medium followed by heating for 10 min at 80° C. before inoculation into growth medium.
(§2) Growth and pH measurements. Growth of bacterial cultures was measured spectrophotometrically using optical density at 600 nm and pH of cell-free culture supernatants was measured using a hand-held Shindengen ISFET pH Meter KS501, Shendengen Electric Manufacturing Co., Ltd., Bannockburn, Ill.
(§3) Effect of peptide SEQ ID NO:143 addition on sequential batch cultures of C. acetobutylicum ATCC 824 grown at 30° C. Spores of C. acetobutylicum ATCC 824 were germinated and grown overnight at 30° C. under anaerobic conditions in YEPG medium. After about 24 h of growth, 75 μL of the culture was transferred (transfer 1) to each of four flasks that contained 10 mL of YEPG and either had no treatment or were treated with peptide SEQ ID NO:143 (see Table 8 and FIG. 1) at 1 nM, 10 nM or 50 nM. Thereafter, 75 μL of each culture was transferred, at the same time, every 24-48 h to 10 mL of fresh YEPG that contained the same peptide treatment or no treatment. Each culture was stopped after 96 hours of incubation and optical density, pH and ceric ion reactive chemicals were measured. Sequential batch culturing was continued through 5 transfers at which point the untreated culture and those treated with 1 nM and 10 nM of peptide SEQ ID NO:143 had stopped growing (Table 9).
(§4) Effect of peptide SEQ ID NO:143 addition on sequential batch cultures of C. acetobutylicum ATCC 824 grown at 37° C. Spores of C. acetobutylicum ATCC 824 were germinated and grown overnight at 37° C. under anaerobic conditions in YEPG medium that either contained 50 nM of peptide SEQ ID NO:143 or no added peptide. After about 24 h of growth, 10 μL of the untreated culture was transferred (transfer 1) to each of two flasks that contained 10 mL of YEPG with either no treatment or with 50 nM peptide SEQ ID NO:143. At the same time, 10 μL of the culture that was germinated in the presence of peptide SEQ ID NO:143 was also transferred to 10 mL of YEPG that contained 50 nM of peptide SEQ ID NO:143. Thereafter, 10 μL of each culture was transferred, at the same time, every 24-48 h to 10 mL of fresh YEPG that contained the same peptide treatment or no treatment. Each culture was stopped after 72 hours if incubation and optical density, pH and ceric ion reactive chemicals were measured. Sequential batch culturing was continued through 3 transfers at which point the untreated culture and the culture that was germinated and transferred in 50 nM of peptide were still growing, while the culture that was treated with peptide after germination had stopped growing (Table 15 and FIG. 7).

[2] = test system: Clostridium acetobutylicum ATCC 824; test: Growth (optical density at 600 nm) of sequential batch cultures; type: cell-based
Description: as §1, §2, §3, §4

[3] = 1 nM peptide, transfer 1, 96 h, 30° C.
[4] = 1 nM peptide, transfer 2, 96 h, 30° C.
[5] = 1 nM peptide, transfer 3, 96 h, 30° C.
[6] = 1 nM peptide, transfer 4, 96 h, 30° C.
[7] = 1 nM peptide, transfer 5, 96 h, 30° C.
[8] = 10 nM peptide, transfer 1, 96 h, 30° C.
[9] = 10 nM peptide, transfer 2, 96 h, 30° C.
[10] = 10 nM peptide, transfer 3, 96 h, 30° C.
[11] = 10 nM peptide, transfer 4, 96 h, 30° C.
[12] = 50 nM peptide added after germination, transfer 1, 72 h, 37° C.
[13] = 50 nM peptide added after germination, transfer 2, 72 h, 37° C.
[14] = 50 nM peptide added after germination, transfer 3, 72 h, 37° C.
[15] = 50 nM peptide, transfer 1, 96 h, 30° C.
[16] = 50 nM peptide, transfer 2, 96 h, 30° C.
[17] = 50 nM peptide, transfer 3, 96 h, 30° C.
[18] = 50 nM peptide, transfer 4, 96 h, 30° C.
[19] = 50-50: germinated and transferred in 50 nM peptide, transfer 1, 72 h, 37° C.
[20] = 50-50: germinated and transferred in 50 nM peptide, transfer 2, 72 h, 37° C.
[21] = 50-50: germinated and transferred in 50 nM peptide, transfer 3, 72 h, 37° C.
[22] = 50-50: spores germinated in 50 nM peptide, transfer 0 (germinated culture), 72 h, 37° C.

What does the source list for SYPGWSW [Peptide SEQ ID NO:143]?
Expected time in continuous culture with peptide (C. acetobutylicum): about 700 hours; Final pH of culture broths [1, 3]: 6.0; Final pH of culture broths [1, 4]: 4.4; Final pH of culture broths [1, 5]: 4.4; Final pH of culture broths [1, 6]: 6.0; Final pH of culture broths [1, 7]: 6.0; Final pH of culture broths [1, 8]: 4.4; Final pH of culture broths [1, 9]: 4.4; Final pH of culture broths [1, 10]: 4.5; Final pH of culture broths [1, 11]: 4.5; Final pH of culture broths ([1]; 10 nM peptide, transfer 5, 96 h, 30° C., listed as SEQ ID NO: 143): 6.0; Final pH of culture broths ([1]; 10 nM peptide, transfer 5, 96 h, 30° C., listed as SEQ ID NO:143): 5.9; Final pH of culture broths [1, 12]: 4.4; Final pH of culture broths [1, 13]: 6.0; Final pH of culture broths [1, 14]: 5.5; Final pH of culture broths [1, 15]: 4.4; Final pH of culture broths [1, 16]: 4.6; Final pH of culture broths [1, 17]: 4.5; Final pH of culture broths [1, 18]: 4.4; Final pH of culture broths ([1]; 50 nM peptide, transfer 5, 96 h, 30° C., listed as SEQ ID NO: 143): 4.3; Final pH of culture broths ([1]; 50 nM peptide, transfer 5, 96 h, 30° C., listed as SEQ ID NO:143): remained low; Final pH of culture broths [1, 19]: 4.5; Final pH of culture broths [1, 20]: 3.8; Final pH of culture broths [1, 21]: 4.6; Final pH of culture broths [1, 22]: 4.1; Last sequential transfer through which growth was allowed ([2]; 1 nM peptide, 30° C., untreated culture did not grow after the second transfer): third transfer; Optical density at 600 nm of culture broths [2, 3]: 0.005; Optical density at 600 nm of culture broths [2, 4]: 2.274; Optical density at 600 nm of culture broths [2, 5]: 2.165; Optical density at 600 nm of culture broths [2, 6]: 0.044; Optical density at 600 nm of culture broths [2, 7]: 0.004; Last sequential transfer through which growth was allowed ([2]; 10 nM peptide, 30° C.): fourth transfer; Optical density at 600 nm of culture broths [2, 8]: 2.001; Optical density at 600 nm of culture broths [2, 9]: 2.245; Optical density at 600 nm of culture broths [2, 10]: 2.379; Optical density at 600 nm of culture broths [2, 11]: 2.266; Optical density at 600 nm of culture broths ([2]; 10 nM peptide, transfer 5, 96 h, 30° C.): 0.028; Optical density at 600 nm of culture broths [2, 12]: 1.891; Optical density at 600 nm of culture broths [2, 13]: 0.011; Optical density at 600 nm of culture broths [2, 14]: 0.100; Last sequential transfer through which growth was extended ([2]; 50 nM peptide, 30° C.): fifth transfer; Optical density at 600 nm of culture broths [2, 15]: 1.879; Optical density at 600 nm of culture broths [2, 16]: 2.089; Optical density at 600 nm of culture broths [2, 17]: 2.313; Optical density at 600 nm of culture broths [2, 18]: 2.187; Optical density at 600 nm of culture broths ([2]; 50 nM peptide, transfer 5, 96 h, 30° C.): 2.173; Number of sequential transfers compared with a culture without added peptide ([2]; 30° C., sequential batch cultures): at least four more times; Optical density at 600 nm of culture broths [2, 19]: 1.715; Optical density at 600 nm of culture broths [2, 20]: 1.858; Optical density at 600 nm of culture broths [2, 21]: 1.485; Optical density at 600 nm of culture broths [2, 22]: 2.121
